Measured values from patent publication US5071839A, “Safe pharmaceutical composition for decreasing side effects of antiviral drugs and increasing the immune function (SDI) II” (priority 1987, dated 1991).
Where two headings read alike, the source gives them in different places.

Key:
[1] = test system: DNA synthesis; conditions: cited from earlier work
[2] = cited from earlier work
[3] = test system: YAC-1 or EAC cells; test: Natural killer cell cytotoxicity, 51Cr release from YAC-1 or EAC cells (Example 5, Table 1); assay type: cell-based, mice; conditions: C: control, only antiviral drug (80 μg/ml); E:T 100:1
Description: (§1) Male mice weight 18-20 g were used in the experimetns. The dosage of SDI is 5-10 mg/kg injected intraperitoneally. The normal mice were injected with same volume of normal saline. These injections were repeated daily for 3-5 days. On the last say, both antiviral drug and antiviral drug+SDI group were injected interaperitoneally.
Natural Killer (NK) Cells can destrou many viruse. NK cells may be important in limiting early spread of virus, also Natural Killer Cytotoxicity is effective antiviral agent. NK cell cytoxicity was tested by chromium release which assay using ^51 Cr-labelled YAC-1 or EAC cell line as targer cells. […] The effector cell to target cell (E:T) radio is 100:1. After the incubation the tuber were spun, the amount of ^51 Cr-released in 0.1 ml supernatant was counted by r-scintillation counter. Percent cytotoxicity was calculated from the following formula: [formula]

[4] = test system: T lymphocytes; test: Formation of rosette (T lymphocytes with sheep erythrocytes) (Example 9, Table 5); assay type: cell-based, mice; conditions: C: control, only antiviral drug (80 μg/ml)
Description: as §1
a. Obtain venous blood in heparin (10 IU ml^-1) and perform a total and differential leucocyte count.
b. Isolate lymphocyte fraction. Count vaiable lymphocytes calculate and record total yield. Adjust to 5×10^5 lymphocytes ml^-1.
c. Wash sheep erythrocytes by centrifugation (400 g for 10 minutes at room temperature) and ajust to a 2.5% v/v suspension in PBS.
d. Mix 0.1 ml of the lymphocyte suspension with 0.1 ml of sheep erythrocytes and centrifuge at 225 g for 5 minutes at room temperature.
e. Incubate for 2 hours at 4° C.
f. Add 50 μl of fetal bovine serum (FBS).
g. Resuspend cell mixture by gently tapping the tube and pipette a sample into a haemocytomer.
h. Count 200 lymphocytes and determine the percentage of cell with 3 or more erythrocytes attached. (Three are T lymphocytes).
i. Calculate the absolute number of T lymphocytes ml^-1 of original blood.

[5] = test system: white blood cells; test: White blood cells assay (Example 8, Table 4); assay type: in vivo, mice; conditions: C: control, only antiviral drug (80 μg/ml); 7 days
Description: as §1
Action of SDI II and antiviral drug on white blood cells was investigated by means of white blood cells assay. […] Time of treatment is 7 days.

[6] = test system: peritoneal macrophage; test: Phagocytosis of peritoneal macrophage of mice, 51Cr chick red blood cells (Example 10, Table 6); assay type: cell-based; conditions: C: control, only antiviral drug (80 μg/ml)
Description: as §1
Count the number of macrophages in the peritoneal exudate of mice and adjust to 1×10^7 cell/ml with normal saline. Add 0.1 ml of the macrophage suspension. i.e. 1×10^6 cells to each well on the plastic plate for test. Lable the chick red blood cell with ^51 Cr. Suspend the labelled chick red blood cell and adjust to 1.5×10^8/ml, add 0.1 ml, i.e. 1.5×10^7, to each well. Incubate at 37° C. for 30 minutes. Wash thoughly to remove the free chick red blood cells. Count each well in a γ-counter.

[7] = test system: bone marrow stem cells (CFU-S); test: Spleen colony assay, bone marrow stem cells (CFU-S) (Example 6, Table 2); assay type: in vivo, mice; conditions: C: control, only antiviral drug (80 μg/ml)
Description: as §1
Effects of SDI on hemopoietic system were investigated.

[8] = test system: lymphocytes; test: Lymphoblastoid transformation test, 3H-TdR (Example 7, Table 3); assay type: cell-based, mice; conditions: C: control, only antiviral drug (80 μg/ml)
Description: as §1
1. Reagents and conditions for cell culture
a. Culture media--RPMI 1640, madium 199 minimal essential medium (Eagle).
b. 37° C. to maintain the pH of the medium at 7.31.
c. Serum--generally 15-20% fetal bovine serum was incorporated.
d. Gaseous phase 5% CO2 in air;
e. Cell concentration--generally 1-2×10^6 /ml;
f. Stimulants--20 μg/ml for phytoagglutinin containing polysaccharide (PHA-M) or 10 μg/ml for polysaccharide-free purified phytoagglutinin (PHA-P).
2. Measured by liquid scintillation
a. The conditions of cell culture are same as above. ^3 H-TdR was added after 48 hours of incubation at a final concentration of 2 μCi/ml and continue the incubation for 24 hours.
b. Wash the cells twice with cold normal saline and the erythrocytes were lysed by addition of distilled-water and equal volume of 3.6% NaCi was then added. The intact lymphocytes and add 2 ml of 10% trichloroacetic acid to precipitate the protein. Wash twice with normal saline. Add 2 ml of ethanol: ether (1:1) to wash once. 0.2 ml of formic acid was then added for digestion till the precipitate was dissolved.
c. Add 4 ml of scintillation fluid to 0.1 ml of the final sample and count in a liquid scintillation counter.

Row | SMILES | DNA synthesis [1] | side effects (marrow, blood) ([2]; various degree) | % Cytotoxicity (NK cells) [3] [%] | Rate of formed rosette [4] [%] | White blood cells [5] [mL⁻¹] | CPM (phagocytosis of peritoneal macrophage) [6] [CPM] | Mean CFU ± SD [7] | CPM (lymphoblastoid transformation) [8] [CPM] | side effects (marrow, blood) ([2]; in vivo)
1 | Cc1cn([C@H]2C[C@H](N=[N+]=[N-])[C@@H](CO)O2)c(=O)[nH]c1=O [AZT, 3'-Azido-3'-deoxythymidine] | blocker of DNA synthesis | bone-marrow suppression and megaloblastic anemia, and decreasing total white blood cells | – | – | – | – | – | – | –
2 | NC(=O)c1ncn([C@@H]2O[C@H](CO)[C@@H](O)[C@H]2O)n1 [Rib, Ribofuranosyl-Trazole-Carboxamide] | – | bone-marrow suppression, megaloblastic anemia and recreasing total white blood cells | 22.3 | 28.7 | 4900 | 540 | 4.2 | 763 | –
3 | O=P1(N(CCCl)CCCl)NCCCO1 (centres unmarked) [CP, Cyclophosphamide] | – | bone-marrow suppression, megaloblastic anemia and recreasing total white blood cells | 20.7 | 20.7 | 5300 | 481 | 4.0 | 620 | –
4 | Nc1ccn([C@H]2CC[C@@H](CO)O2)c(=O)n1 [DDC, 2',3'-Dideoxycytidine] | – | – | – | – | – | – | – | – | bone-marrow suppression, megaloblastic anemia and recreasing total white blood cells
5 | Nc1ncn([C@H]2C[C@H](O)[C@@H](CO)O2)c(=O)n1 [AZCdR, 5'-Aza-2'-deoxycytidine] | – | bone-marrow suppression, megaloblastic anemia and recreasing total white blood cells | – | – | – | – | – | – | –
6 | O=c1[nH]c(=O)n([C@H]2C[C@H](O)[C@@H](CO)O2)cc1I [IDU, Idoxuridine] | – | – | – | – | – | – | – | – | bone-marrow suppression, megaloblastic anemia and recreasing total white blood cells
7 | Nc1nc2c(ncn2COCCO)c(=O)[nH]1 [ACV, Acyclovir] | – | bone-marrow suppression, megaloblastic anemia and recreasing total white blood cells | – | – | – | – | – | – | –
8 | Nc1ccn([C@@H]2O[C@H](CO)[C@@H](O)[C@@H]2O)c(=O)n1 [Ara-C, Cytarabine] | – | bone-marrow suppression, megaloblastic anemia and recreasing total white blood cells | – | 23.7 | 4200 | 512 | 3.8 | 654 | –
9 | Nc1ncn([C@@H]2O[C@H](CO)[C@@H](O)[C@H]2O)c(=O)n1 [AZC] | – | – | 11.2 | 19.8 | 3800 | 401 | 3.1 | 441 | –
10 | O=c1cnn([C@@H]2O[C@H](CO)[C@@H](O)[C@H]2O)c(=O)[nH]1 [AZU, 6-Azauridune] | – | bone-marrow suppression, megaloblastic anemia and recreasing total white blood cells | – | – | – | – | – | – | –
11 | Nc1ncnc2c1ncn2[C@H]1CC[C@@H](CO)O1 [DDA, 2',3'-Dideoxyadenoside] | – | bone-marrow suppression, megaloblastic anemia and recreasing total white blood cells | 18.0 | 22.4 | 4200 | 489 | 4.2 | 502 | –
12 | N=c1ccn2c(n1)O[C@H]1[C@H](O)[C@@H](CO)O[C@H]12 [C.C., Cyclocytidine] | – | bone-marrow suppression, megaloblastic anemia and recreasing total white blood cells | – | – | – | – | – | – | –
